From patent publication US20080045537A1, “Chemical Compounds” (priority 2004, published 2008)

System: HIV-1 IIIB (T-tropic, CXCR4 utilizing)
Assay: HOS HIV-1 infectivity assay
Format: cell-based
Conditions: Human immunodeficiency virus 1, IIIB; as determined by the infectivity assay; strain not stated in Table 2; read-out: Activity Level
Description: Compounds were profiled against two HIV-1 viruses, the M-tropic (CCR5 utilizing) Ba-L strain and the T-tropic (CXCR4 utilizing) IIIB strain. Both viruses were propagated in human peripheral blood lymphocytes. Compounds were tested for there ability to block infection of the HOS cell line (expressing hCXCR4/hCCR5/hCD4/pHIV-LTR-luciferase) by either HIV-1 Ba-L or HIV-1 IIIB. Compound cytotoxicity was also examined in the absence of virus addition.
HOS cells (expressing hCXCR4/hCCR5/hCD4/pHIV-LTR-luciferase) were harvested and diluted in Dulbeccos modified Eagles media supplemented with 2% FCS and non-essential amino acid to a concentration of 60,000 cells/ml. The cells were plated into 96-well plates (100 ul per well) and the plates were placed in a tissue culture incubator (37° C.; 5% CO2/95% air) for a period of 24 h.
Subsequently, 50 ul of the desired drug solution (4 times the final concentration) was added to each well and the plates were returned to the tissue culture incubator (37° C.; 5% CO2/95% air) for 1 h. Following this incubation 50 ul of diluted virus was added to each well (approximately 2 million RLU per well of virus). The plates were returned to the tissue culture incubator (37° C.; 5% CO2/95% air) and were incubated for a further 96 h.
Following this incubation the endpoint for the virally infected cultures was quantified following addition of Steady-Glo Luciferase assay system reagent (Promega, Madison, Wis.). Cell viability or non-infected cultures was measured using a CellTiter-Glo luminescent cell viability assay system (Promega, Madison, Wis.). All luminescent readouts are performed on a Topcount luminescence detector (Packard, Meridien, Conn.).

SMILES	IC50
CN(Cc1nc2cc(C(N)=O)ccc2[nH]1)C1CCCc2cccnc21 (stereo not drawn) [Example 37, 2-{[Methyl(5,6,7,8-tetrahydroquinolin-8-yl)amino]methyl}-1H-benzimidazole-5-carboxamide]	< 100 nM
CN(Cc1nc2cc(C(=O)NCC3CCNCC3)ccc2[nH]1)C1CCCc2cccnc21 (stereo not drawn) [Example 38, 2-{[Methyl(5,6,7,8-tetrahydroquinolin-8-yl)amino]methyl}-N-(piperidin-4-ylmethyl)-1H-benzimidazole-5-carboxamide]	500 to 10000 nM
CN(Cc1nc2cc(C(=O)NCc3cccnc3)ccc2[nH]1)C1CCCc2cccnc21 (stereo not drawn) [Example 39, 2-{[Methyl(5,6,7,8-tetrahydro-8-quinolinyl)amino]methyl}-N-(3-pyridinylmethyl)-1H-benzimidazole-5-carboxamide]	500 to 10000 nM
CN(Cc1nc2cc(C(=O)NCc3ccncc3)ccc2[nH]1)C1CCCc2cccnc21 (stereo not drawn) [Example 40, 2-{[Methyl(5,6,7,8-tetrahydro-8-quinolinyl)amino]methyl}-N-(4-pyridinylmethyl)-1H-benzimidazole-5-carboxamide]	500 to 10000 nM
CN(Cc1nc2cc(C(=O)NCC3CCCCC3)ccc2[nH]1)C1CCCc2cccnc21 (stereo not drawn) [Example 41, N-(Cyclohexylmethyl)-2-{[methyl(5,6,7,8-tetrahydro-8-quinolinyl)amino]methyl}-1H-benzimidazole-5-carboxamide]	500 to 10000 nM
CN(Cc1nc2ccc(C(=O)N3CCC(CCN4CCCC4)CC3)cc2[nH]1)C1CCCc2cccnc21 (stereo not drawn) [Example 42, N-Methyl-N-{[5-({4-[2-(1-pyrrolidinyl)ethyl]-1-piperidinyl}carbonyl)-1H-benzimidazol-2-yl]methyl}-5,6,7,8-tetrahydro-8-quinolinamine]	500 to 10000 nM
CCN(Cc1nc2ccc(C(=O)NCCc3cncn3C)cc2[nH]1)C1CCCc2cccnc21 (stereo not drawn) [Example 43, 2-{[ethyl(5,6,7,8-tetrahydro-8-quinolinyl)amino]methyl}-N-[2-(1-methyl-1H-imidazol-5-yl)ethyl]-1H-benzimidazole-5-carboxamide]	100 to 500 nM
CCN(Cc1nc2cc(C(=O)NCCCCCN)ccc2[nH]1)C1CCCc2cccnc21 (stereo not drawn) [Example 44, N-(5-Aminopentyl)-2-{[ethyl(5,6,7,8-tetrahydro-8-quinolinyl)amino]methyl}-1H-benzimidazole-5-carboxamide]	500 to 10000 nM
CCN(CC)CCN1CCN(C(=O)c2ccc3[nH]c(CN(CC)C4CCCc5cccnc54)nc3c2)CC1 (stereo not drawn) [Example 46, N-{[5-({4-[2-(Diethylamino)ethyl]-1-piperazinyl}carbonyl)-1H-benzimidazol-2-yl]methyl}-N-ethyl-5,6,7,8-tetrahydro-8-quinolinamine]	500 to 10000 nM
CCN(Cc1nc2cc(C(=O)N3CCN(C)CC3)ccc2[nH]1)C1CCCc2cccnc21 (stereo not drawn) [Example 48, N-Ethyl-N-({5-[(4-methyl-1-piperazinyl)carbonyl]-1H-benzimidazol-2-yl}methyl)-5,6,7,8-tetrahydro-8-quinolinamine]	100 to 500 nM
CCN(Cc1nc2cc(C(=O)N(C)CCN(C)C)ccc2[nH]1)C1CCCc2cccnc21 (stereo not drawn) [Example 49, N-[2-(Dimethylamino)ethyl]-2-{[ethyl(5,6,7,8-tetrahydro-8-quinolinyl)amino]methyl}-N-methyl-1H-benzimidazole-5-carboxamide]	500 to 10000 nM
CCN(Cc1nc2cc(C(=O)NCCN(C)C)ccc2[nH]1)C1CCCc2cccnc21 (stereo not drawn) [Example 50, N-[2-(Dimethylamino)ethyl]-2-{[ethyl(5,6,7,8-tetrahydro-8-quinolinyl)amino]methyl}-1H-benzimidazole-5-carboxamide]	100 to 500 nM
CNCCN(C)C(=O)c1ccc2[nH]c(CN(C)C3CCCc4cccnc43)nc2c1 (stereo not drawn) [Example 51, N-Methyl-N-[2-(methylamino)ethyl]-2-{[methyl(5,6,7,8-tetrahydro-8-quinolinyl)amino]methyl}-1H-benzimidazole-5-carboxamide]	< 100 nM
CN(C)CCNC(=O)c1ccc2[nH]c(CN(C)C3CCCc4cccnc43)nc2c1 (stereo not drawn) [Example 52, N-[2-(Dimethylamino)ethyl]-2-{[methyl(5,6,7,8-tetrahydro-8-quinolinyl)amino]methyl}-1H-benzimidazole-5-carboxamide]	< 100 nM
CNCCNC(=O)c1ccc2[nH]c(CN(C)C3CCCc4cccnc43)nc2c1 (stereo not drawn) [Example 53, N-[2-(Methylamino)ethyl]-2-{[methyl(5,6,7,8-tetrahydro-8-quinolinyl)amino]methyl}-1H-benzimidazole-5-carboxamide]	< 100 nM
CN(Cc1nc2cc(C(=O)NCC(C)(C)CN)ccc2[nH]1)C1CCCc2cccnc21 (stereo not drawn) [Example 54, N-(3-Amino-2,2-dimethylpropyl)-2-{[methyl(5,6,7,8-tetrahydro-8-quinolinyl)amino]methyl}-1H-benzimidazole-5-carboxamide]	100 to 500 nM
CN(C)CCN(C)C(=O)c1ccc2[nH]c(CN(C)C3CCCc4cccnc43)nc2c1 (stereo not drawn) [Example 55, N-[2-(Dimethylamino)ethyl]-N-methyl-2-{[methyl(5,6,7,8-tetrahydro-8-quinolinyl)amino]methyl}-1H-benzimidazole-5-carboxamide]	< 100 nM
CN(Cc1nc2cc(C(=O)N3CCN(C(=O)OCc4ccccc4)CC3)ccc2[nH]1)C1CCCc2cccnc21 (stereo not drawn) [Example 56, Phenylmethyl 4-[(2-{[methyl(5,6,7,8-tetrahydro-8-quinolinyl)amino]methyl}-1H-benzimidazol-5-yl)carbonyl]-1-piperazinecarboxylate]	500 to 10000 nM
CN(Cc1nc2cc(C(=O)N3CCNCC3)ccc2[nH]1)C1CCCc2cccnc21 (stereo not drawn) [Example 57, N-Methyl-N-{[5-(1-piperazinylcarbonyl)-1H-benzimidazol-2-yl]methyl}-5,6,7,8-tetrahydro-8-quinolinamine]	500 to 10000 nM
CN1CCN(C(=O)c2ccc3[nH]c(CN(C)C4CCCc5cccnc54)nc3c2)CC1 (stereo not drawn) [Example 58, N-Methyl-N-({5-[(4-methyl-1-piperazinyl)carbonyl]-1H-benzimidazol-2-yl}methyl)-5,6,7,8-tetrahydro-8-quinolinamine]	100 to 500 nM
CN(Cc1nc2cc(C(=O)N3CCN(Cc4ccccc4)CC3)ccc2[nH]1)C1CCCc2cccnc21 (stereo not drawn) [Example 59, N-Methyl-N-[(5-{[4-(phenylmethyl)-1-piperazinyl]carbonyl}-1H-benzimidazol-2-yl)methyl]-5,6,7,8-tetrahydro-8-quinolinamine]	500 to 10000 nM
CN(Cc1nc2cccc(C(=O)NCCCCCN)c2[nH]1)C1CCCc2cccnc21 (stereo not drawn) [Example 61, N-(5-Aminopentyl)-2-{[methyl(5,6,7,8-tetrahydro-8-quinolinyl)amino]methyl}-1H-benzimidazole-4-carboxamide]	100 to 500 nM
CN(Cc1nc2cccc(C(=O)N3CCN(Cc4ccccc4)CC3)c2[nH]1)C1CCCc2cccnc21 (stereo not drawn) [Example 62, N-Methyl-N-[(4-{[4-(phenylmethyl)-1-piperazinyl]carbonyl}-1H-benzimidazol-2-yl)methyl]-5,6,7,8-tetrahydro-8-quinolinamine]	500 to 10000 nM
COCCNC(=O)c1cccc2nc(CN(C)C3CCCc4cccnc43)[nH]c12 (stereo not drawn) [Example 64, N-[2-(Methyloxy)ethyl]-2-{[methyl(5,6,7,8-tetrahydro-8-quinolinyl)amino]methyl}-1H-benzimidazole-4-carboxamide]	500 to 10000 nM
